Source: patent US10258043B2, “Pesticide compositions and methods for controlling invertebrate pests” (Adama Makhteshim Ltd., priority 2012, dated 2019)

System: German cockroaches
Test: Second series of evaluations: pyriproxyfen and novaluron alone and in combination on three substrates
Assay type: in vivo
Conditions: preliminary results
Experimental: Ceramic tile, vinyl tile, and unpainted plywood panels measuring 6″×6″ were cleaned using soapy water to remove any residue left over from the manufacturing process and left to dry overnight. Six (6) L plastic storage boxes (Sterlite®) with lids were purchased from a local hardware store (Home Depot, Riverbank, Calif.) and cleaned as well and allowed to dry. Each substrate was treated with 0.95 mL of test material (1 gallon/1,000 ft^2 equivalent) prepared in accordance with Example 1 using a Pipetteman 1000, with the material being evenly distributed over the entire surface of the substrate using an acid brush. The material was allowed to dry and the substrates were placed into the plastic storage boxes, one per box. A 5 cm Petri dish was filled with dog food and a slice of orange for nourishment, and a water tube was added for moisture. The food dish was placed directly on the treated substrate to force exposure of the cockroaches. A 6″ rolled piece of corrugated cardboard was placed in each replicate for harborage. A thin layer of petroleum jelly/mineral oil was applied to the rim to prevent escape.
Approximately forty (40) second and third instar nymphs were placed in each replicate and the lid was placed on top. Five replicates were prepared, one for each of the four treatments set forth in Table 2 and an untreated control. […]

Structure (SMILES): O=C(NC(=O)c1c(F)cccc1F)Nc1ccc(OC(F)(F)C(F)OC(F)(F)F)c(Cl)c1 (racemic) [novaluron, (RS)-1-[3-chloro-4-(1,1,2-trifluoro-2-trifluoromethoxyethoxy)phenyl]-3-(2,6-difluorobenzoyl)urea]
- Molting abnormalities of mid-instar cockroaches (all three substrates): molting abnormalities

Structure (SMILES): CC(COc1ccc(Oc2ccccc2)cc1)Oc1ccccn1 (centres unmarked) [pyriproxyfen, 4-phenoxyphenyl 2-(2-pyridyloxy)propyl ether]
- Morphological characteristics of juvenoid activity (individuals alive in these treatment groups): twisted wings and darkened cuticle
